Where two headings read alike, the source gives them in different places.
Experiments:
[1] = for Percent amphoteric remaining: buffer
Method: The resulting mixture was placed in a 50° C. oven. Samples were taken periodically and analyzed for the amount of (4-lauroyloxy-1-methylpiperidinium-1-yl)acetate remaining by quantitative HPLC.

[2] = Foaming Properties of Surface-Active Agents (ASTM 1173-07), foam height; assay type: physicochemical
From the text: The Standard Test Method for Foaming Properties of Surface-Active Agents (ASTM 1173-07) was used to determine the foaming properties of the heterocyclic amphoteric compounds of the formula 1 described herein. This method generates foam under low-agitation conditions and is generally used for moderate- and high-foam surfactants. This test gathers data on initial foam height and foam decay. Foam decay provides information on foam stability.
The apparatus for carrying out this test includes a jacketed column and a pipet. The jacketed column serves as a receiver, while the pipet delivers the surface-active solution. Solutions of each surface-active agent were prepared. The solution of the heterocyclic amphoteric compound to be tested was added to the receiver (50 mL) and to the pipet (200 mL). The pipet was positioned above the receiver and opened. As the solution fell and made contact with the solution in the receiver, foam was generated. When the pipet was empty, the time was noted and an initial foam height was recorded. The foam height was recorded each minute for five minutes. Exact size specifications for the glassware can be found in ASTM 1173-07. The foam height results for each heterocyclic amphoteric compound 1 and representative standards are listed below in Tables 1 (0.1% concentration) and 2 (1% concentration).

[3] = Fluorimetric determination of critical micelle concentration (DPH dye); assay type: physicochemical
Method: The critical micelle concentration (CMC) was also determined for each compound. The CMC is the concentration of surfactant above which micelles spontaneously form. CMC is an important characteristic of a surfactant. At surfactant concentrations below the CMC, surface tension varies widely with surfactant concentration. At concentrations above the CMC, surface tension remains fairly constant. A lower CMC indicates less surfactant is needed to saturate interfaces and form micelles. Typical CMC values are less than 1 weight percent (10,000 ppm).
The fluorimetric determination of CMC described by Chattopadhyay and London (Analytical Biochemistry, Vol. 139, pp. 408-412 (1984)) was used to obtain the critical micelle concentrations found in Table 3 below. This method employs the fluorescent dye 1,6-diphenyl-1,3,5-hexatriene (DPH) in a solution of the surface-active agent. The analysis is based on differences in fluorescence upon incorporation of the dye into the interior of the micelles. As the solution exceeds CMC, a large increase in fluorescence intensity is observed.

[4] = 1 g/L (0.1 weight %), t = 0 min
[5] = 1 g/L (0.1 weight %), t = 1 min
[6] = 1 g/L (0.1 weight %), t = 2 min
[7] = 1 g/L (0.1 weight %), t = 3 min
[8] = 1 g/L (0.1 weight %), t = 4 min
[9] = 1 g/L (0.1 weight %), t = 5 min
[10] = 10 g/L (1.0 weight %), t = 0 min
[11] = 10 g/L (1.0 weight %), t = 1 min
[12] = 10 g/L (1.0 weight %), t = 2 min
[13] = 10 g/L (1.0 weight %), t = 3 min
[14] = 10 g/L (1.0 weight %), t = 4 min
[15] = 10 g/L (1.0 weight %), t = 5 min

Row | Foam height (cm) at time t (min) [2, 4] | Foam height (cm) at time t (min) [2, 5] | Foam height (cm) at time t (min) [2, 6] | Foam height (cm) at time t (min) [2, 7] | Foam height (cm) at time t (min) [2, 8] | Foam height (cm) at time t (min) [2, 9] | Foam height (cm) at time t (min) [2, 10] | Foam height (cm) at time t (min) [2, 11] | Foam height (cm) at time t (min) [2, 12] | Foam height (cm) at time t (min) [2, 13] | Foam height (cm) at time t (min) [2, 14] | Foam height (cm) at time t (min) [2, 15] | CMC [3] | CMC (ppm) [3] | Compound | other results
1 | – | – | – | – | – | – | – | – | – | – | – | – | – | – | 3-(cocoyloxypropyldimethylammonio)acetate [Comparative Example 2, reference compound] | Percent amphoteric remaining ([1]; 0 h, pH 5): 100%; Percent amphoteric remaining ([1]; 336 h, pH 5): 74%; Percent amphoteric remaining ([1]; 1344 h, pH 5): 73%; Loss of compound (in words) ([1]; milder conditions (pH 5, 45° C.)): significant loss
2 | 17.0 cm | 17.0 cm | 16.5 cm | 16.5 cm | 16.0 cm | 16.0 cm | 16.5 cm | 16.0 cm | 16.0 cm | 15.5 cm | 15.5 cm | 15.5 cm | – | – | CCCCCCCCCCCC(=O)OC1CC[N+](C)(CC(=O)[O-])CC1 (centres unmarked) [Example 9, (4-lauroyloxy-1-methylpiperidinium-1-yl)acetate] | Percent amphoteric remaining ([1]; 0 h, pH 4.5): 100%; Percent amphoteric remaining ([1]; 336 h, pH 4.5): 98%; Percent amphoteric remaining ([1]; 1008 h, pH 4.5): 96%; Percent amphoteric remaining ([1]; 1344 h, pH 4.5): 85%; Loss of compound (in words) ([1]; extended incubation in pH 4.5 water at 50° C.): limited loss
3 | 18.5 cm | 17.5 cm | 17.5 cm | 17.0 cm | 16.5 cm | 16.0 cm | 19.0 cm | 18.0 cm | 18.0 cm | 17.5 cm | 17.5 cm | 17.5 cm | 0.248 mM | 95.0 ppm | CCCCCCCCCCCC(=O)OCC1CCC[N+](C)(CC(=O)[O-])C1 (centres unmarked) [Example 11, (3-lauroyloxymethyl-1-methylpiperidinium-1-yl)acetate] | –
4 | 16.5 cm | 16.0 cm | 15.5 cm | 15.5 cm | 15.0 cm | 15.0 cm | 18.0 cm | 17.5 cm | 17.0 cm | 17.0 cm | 17.0 cm | 16.5 cm | 0.062 mM | 23.7 ppm | (3-cocoyloxymethyl-1-methylpiperidinium-1-yl)acetate [Example 5] | –
5 | 16.5 cm | 16.0 cm | 15.5 cm | 15.5 cm | 15.5 cm | 15.5 cm | 18.5 cm | 18.0 cm | 17.5 cm | 17.0 cm | 17.0 cm | 17.0 cm | 0.062 mM | 22.9 ppm | (4-cocoyloxy-1-methylpiperidinium-1-yl)acetate [Example 3] | –
6 | 16.0 cm | 14.5 cm | 12.5 cm | 9.0 cm | 6.0 cm | 4.0 cm | 18.0 cm | 17.0 cm | 17.0 cm | 17.0 cm | 16.5 cm | 16.5 cm | 0.050 mM | 19.2 ppm | (4-cocoyloxymethyl-1-methylpiperidinium-1yl)acetate [Example 7] | –
7 | – | – | – | – | – | – | – | – | – | – | – | – | 1.54 mM | 566.5 ppm | (4-lauramido-1-methylpiperidinium-1-yl)acetate [Example 17] | –
8 | 17.0 cm | 16.0 cm | 16.0 cm | 16.0 cm | – | 15.5 cm | 17.5 cm | 16.5 cm | – | 16.0 cm | 16.0 cm | 16.0 cm | 0.069 mM | 24.5 ppm | cocamidopropyl betaine [reference compound] | –

Row | Compound | Foam height (cm) at time t (min) [2, 4] | Foam height (cm) at time t (min) [2, 5] | Foam height (cm) at time t (min) [2, 6] | Foam height (cm) at time t (min) [2, 7] | Foam height (cm) at time t (min) [2, 8] | Foam height (cm) at time t (min) [2, 9] | Foam height (cm) at time t (min) [2, 10] | Foam height (cm) at time t (min) [2, 11] | Foam height (cm) at time t (min) [2, 12] | Foam height (cm) at time t (min) [2, 13] | Foam height (cm) at time t (min) [2, 14] | Foam height (cm) at time t (min) [2, 15] | CMC [3] | CMC (ppm) [3] | other results
9 | CCCCCCCCCCCCOS(=O)(=O)O.N [ammonium lauryl sulfate, reference compound] | – | – | – | – | – | – | – | – | – | – | – | – | 1.38 mM | 392 ppm | –
10 | CCCCCCCCCCCCOS(=O)(=O)[O-].[Na+] [sodium lauryl sulfate, reference compound] | – | – | – | – | – | – | – | – | – | – | – | – | 8.27 mM | 2386 ppm | –
